Literature values as cited in US20160051485A1, “Biodegradable Bionanoparticles for Releasing the GSE24-2 Peptide, Method for the Production Thereof, and Use of Same” (CONSEJO SUPERIOR DE INVESTIGACIONES (CSIC), priority 2013, published 2016).

Tested on: F9A353V cells
Conditions: transfection of the peptide using a lipid compound; previous experiments

For “GSE24.2: fragment of 55 amino acids of the internal domain of dyskerin (TRUB domains), activating telomerase (GFINLDKPSNPSSHEVVAWIRRILRVEKTGHSGTLDPKVTGCLIVCIERATRLVK; listed as Homo sapiens)”, the “Signal of the histone H2AX” value is listed as “reduces the signal of the histone H2AX”.
